Earlier results as cited in PubChem BioAssay AID1259409 (Chemical Carcinogenesis Research Information System (CCRIS), 2018).

Tested on: rodent chemically induced tumor inhibition, incidence and multiplicity
Assay: CCRIS tumor inhibitor studies
Conditions: Promoter: NONE USED

## S=C=NCCCc1ccccc1
Carcinogen: 4-(METHYLNITROSAMINO)-1-(3-PYRIDYL)-1-BUTANONE, 64091-91-4, Dose [Inhibitor]: 0, 0.2 UMOL 1/D FOR 4 D ADMINISTERED PRIOR TO CARCINOGEN TREATMENT (STUDY DURATION: 116 D), Route [Inhibitor]: GAVAGE, Species: MOUSE, Strain/Sex: STRAIN A, Target Tissue: Type of Lesion: LUNG: ADENOMA, Dose [Carcinogen]: 10 UMOL ONCE 2 HR AFTER FINAL DOSE OF INHIBITOR
  tumour outcome (control, treated, inhibition, significance): 100%, 90%, 10%, not significant
Carcinogen: 4-(METHYLNITROSAMINO)-1-(3-PYRIDYL)-1-BUTANONE, 64091-91-4, Dose [Inhibitor]: 0, 1 UMOL 1/D FOR 4 D ADMINISTERED PRIOR TO CARCINOGEN TREATMENT (STUDY DURATION: 116 D), Route [Inhibitor]: GAVAGE, Species: MOUSE, Strain/Sex: STRAIN A, Target Tissue: Type of Lesion: LUNG: ADENOMA, Dose [Carcinogen]: 10 UMOL ONCE 2 HR AFTER FINAL DOSE OF INHIBITOR
  tumour outcome (control, treated, inhibition, significance): 100%, 75%, 25%, not significant
Carcinogen: 4-(METHYLNITROSAMINO)-1-(3-PYRIDYL)-1-BUTANONE, 64091-91-4, Dose [Inhibitor]: 0, 5 UMOL 1/D FOR 4 D ADMINISTERED PRIOR TO CARCINOGEN DOSE (STUDY DURATION: 116 D), Route [Inhibitor]: GAVAGE, Species: MOUSE, Strain/Sex: STRAIN-A, Target Tissue: Type of Lesion: LUNG: ADENOMA, Dose [Carcinogen]: 10 UMOL IN SALINE ADMINISTERED 2 HR POST LAST AGENT DOSE
  tumour outcome (control, treated, inhibition, significance): 100%, 37%, 63%, p<0.001
Carcinogen: 4-(N-NITROSOMETHYLAMINO)-1-(3-PYRIDYL)-1-BUTANONE, 64091-91-4, Dose [Inhibitor]: 0, 5 UMOL/D FOR 4 CONSECUTIVE DAYS (STUDY DURATION: 16.5 WK), Route [Inhibitor]: GAVAGE, Species: MOUSE, Strain/Sex: STRAIN-A/FEMALE, Target Tissue: Type of Lesion: LUNG: ADENOMA, Dose [Carcinogen]: 10 UMOL ONCE 2 HR POST LAST AGENT DOSE
  tumour outcome (control, treated, inhibition, significance): 100%, 37%, 63%, not calculated
Carcinogen: 4-METHYLNITROSAMINO-1-(3-PYRIDYL)-1-BUTANONE,64091-91-4, Dose [Inhibitor]: 0, 5 UMOL 1/D FOR 4 D ADMINISTERED PRIOR TO CARCINOGEN TREATMENT (STUDY DURATION 116 D), Route [Inhibitor]: GAVAGE, Species: MOUSE, Strain/Sex: STRAIN A, Target Tissue: Type of Lesion: LUNG: ADENOMA, Dose [Carcinogen]: 10 UMOL ONCE 2 HR AFTER FINAL DOSE OF INHIBITOR
  tumour outcome (control, treated, inhibition, significance): 100%, 11%, 89%, p<0.05
Carcinogen: N-NITROSOMETHYLBENZYLAMINE, 937-40-6, Dose [Inhibitor]: 0, 0.4 UMOL/G IN DIET FOR 25 WK BEGINNING 2 WK PRIOR TO CARCINOGEN TREATMENT (STUDY DURATION: 25 WK), Route [Inhibitor]: ORAL, Species: RAT, Strain/Sex: F344/MALE, Target Tissue: Type of Lesion: ESOPHAGUS: TUMOR, Dose [Carcinogen]: 0.5 MG/KG BW IN 20% DMSO 1/WK FOR 15 WK
  tumour outcome (control, treated, inhibition, significance): 100%, 7%, 93%, p<0.05
Carcinogen: N-NITROSOMETHYLBENZYLAMINE, 937-40-6, Dose [Inhibitor]: 0, 1 UMOL/G IN DIET FOR 25 WK BEGINNING 2 WK PRIOR TO CARCINOGEN TREATMENT (STUDY DURATION: 25 WK), Route [Inhibitor]: ORAL, Species: RAT, Strain/Sex: F344/MALE, Target Tissue: Type of Lesion: ESOPHAGUS: TUMOR, Dose [Carcinogen]: 0.5 MG/KG BW IN 20% DMSO 1/WK FOR 15 WK
  tumour outcome (control, treated, inhibition, significance): 100%, 7%, 93%, p<0.05
Carcinogen: N-NITROSOMETHYLBENZYLAMINE, 937-40-6, Dose [Inhibitor]: 0, 2.5 UMOL/G IN DIET FOR 25 WK BEGINNING 2 WK PRIOR TO CARCINOGEN TREATMENT (STUDY DURATION: 25 WK), Route [Inhibitor]: ORAL, Species: RAT, Strain/Sex: F344/MALE, Target Tissue: Type of Lesion: ESOPHAGUS: TUMOR, Dose [Carcinogen]: 0.5 MG/KG BW IN 20% DMSO 1/WK FOR 15 WK
  tumour outcome (control, treated, inhibition, significance): 100%, 0%, 100%, p<0.05

## CC(=O)O[C@H]1CC[C@@]2(C)C(=CC[C@@H]3[C@@H]2CC[C@]2(C)C(=O)CC[C@@H]32)C1
Carcinogen: 7,12-DIMETHYLBENZ[A]ANTHRACENE, 57-97-6, Dose [Inhibitor]: 0, 5 MG/100 G BW 1/WK FOR 150 D BEGINNING POST CARCINOGEN TREATMENT (STUDY DURATION: 150 D), Route [Inhibitor]: SUBCUTANEOUS, Species: RAT, Strain/Sex: WISTAR/FEMALE, Target Tissue: Type of Lesion: MAMMARY GLAND: ADENOCARCINOMA, Dose [Carcinogen]: 4 MG IN 0.1 ML OF SESAME OIL INJECTED ONCE INTO THE EXPOSED MAMMARY TISSUE OF HYPERPROLACTINEMIC RATS ON DAY 73 OF AGE
  tumour outcome (control, treated, inhibition, significance): 8/11 (73%), 0/10 (0%), 100%, p<0.01

## c1ccc2c(Cc3c[nH]c4ccccc34)c[nH]c2c1
Carcinogen: BENZO[A]PYRENE, 50-32-8, Dose [Inhibitor]: 0.02 MMOL/G DIET DAILY STARTING AT 63 D OF AGE (8 D PRIOR TO START OF CARCINOGEN TREATMENT) THROUGH 98 D OF AGE FOLLOWED, Route [Inhibitor]: ORAL, Species: MOUSE, Strain/Sex: ICR/FEMALE, Target Tissue: Type of Lesion: FORESTOMACH: TUMOR, Dose [Carcinogen]: 1 MG IN 0.2 ML CORN OIL ADMINISTERED 2/WK FOR 4 WK
  tumour outcome (control, treated, inhibition, significance): 93%, 94%, -1%, not significant

## CC(C)(C)c1cc(O)c(C(C)(C)C)cc1O
Carcinogen: BENZO[A]PYRENE, 50-32-8, Dose [Inhibitor]: 0.03 MMOL/G OF DIET DAILY STARTING 8 D BEFORE AND CONTINUING THROUGH 3 D AFTER CARCINOGEN TREATMENT FOLLOWED BY OBSERVAT, Route [Inhibitor]: ORAL, Species: MOUSE, Strain/Sex: ICR/FEMALE, Target Tissue: Type of Lesion: FORESTOMACH: NEOPLASM, Dose [Carcinogen]: 1 MG IN 0.2 ML CORN OIL 2/WK FOR 4 WK
  tumour outcome (control, treated, inhibition, significance): 90%, 95%, -6%, not significant

## CCCCCCCCCCCC
Carcinogen: 4-(METHYLNITROSAMINO)-1-(3-PYRIDYL)-1-BUTANONE, 64091-91-4, Dose [Inhibitor]: 0, 1 UMOL IN 0.1 ML CORN OIL ONCE 2 HR PRIOR TO CARCINOGEN DOSE (STUDY DURATION: 16 WK), Route [Inhibitor]: GAVAGE, Species: MOUSE, Strain/Sex: STRAIN-A/FEMALE, Target Tissue: Type of Lesion: LUNG: ADENOMA, Dose [Carcinogen]: 10 UMOL IN 0.1 ML SALINE ONCE
  tumour outcome (control, treated, inhibition, significance): 100%, 100%, 0%, not significant

## S=C=NCCCCCCCCc1ccccc1
Carcinogen: 4-(METHYLNITROSAMINO)-1-(3-PYRIDYL)-1-BUTANONE, 64091-91-4, Dose [Inhibitor]: 0, 0.04 UMOL ONCE 2 HR PRIOR TO CARCINOGEN DOSE (STUDY DURATION: 16 WK), Route [Inhibitor]: GAVAGE, Species: MOUSE, Strain/Sex: STRAIN-A/FEMALE, Target Tissue: Type of Lesion: LUNG: ADENOMA, Dose [Carcinogen]: 10 UMOL IN 0.1 ML SALINE ONCE
  tumour outcome (control, treated, inhibition, significance): 100%, 100%, 0%, not significant
Carcinogen: 4-(METHYLNITROSAMINO)-1-(3-PYRIDYL)-1-BUTANONE, 64091-91-4, Dose [Inhibitor]: 0, 0.1 UMOL ONCE 2 HR PRIOR TO CARCINOGEN DOSE (STUDY DURATION: 16 WK), Route [Inhibitor]: GAVAGE, Species: MOUSE, Strain/Sex: STRAIN-A/FEMALE, Target Tissue: Type of Lesion: LUNG: ADENOMA, Dose [Carcinogen]: 10 UMOL IN 0.1 ML SALINE ONCE
  tumour outcome (control, treated, inhibition, significance): 100%, 100%, 0%, not significant
Carcinogen: 4-(METHYLNITROSAMINO)-1-(3-PYRIDYL)-1-BUTANONE, 64091-91-4, Dose [Inhibitor]: 0, 0.2 UMOL ONCE 2 HR PRIOR TO CARCINOGEN DOSE (STUDY DURATION: 16 WK), Route [Inhibitor]: GAVAGE, Species: MOUSE, Strain/Sex: STRAIN-A/FEMALE, Target Tissue: Type of Lesion: LUNG: ADENOMA, Dose [Carcinogen]: 10 UMOL IN 0.1 ML SALINE ONCE
  tumour outcome (control, treated, inhibition, significance): 100%, 90%, 10%, p<0.05

## N[C@@H]1C[C@H]1c1ccccc1
Carcinogen: N-METHYL-N-NITROSOUREA, 684-93-5, Dose [Inhibitor]: 10 MG/KG OF HIGH (20%) FAT DIET BEGINNING 1 WK POST CARCINOGEN DOSE AND CONTINUING FOR DURATION OF STUDY (STUDY DURATION, Route [Inhibitor]: ORAL, Species: RAT, Strain/Sex: SPRAGUE-DAWLEY/FEMALE, Target Tissue: Type of Lesion: MAMMARY GLAND: TUMOR, Dose [Carcinogen]: 40 MG/KG ONCE
  tumour outcome (control, treated, inhibition, significance): 78%, 88%, -13%, not calculated
Carcinogen: N-METHYL-N-NITROSOUREA, 684-93-5, Dose [Inhibitor]: 10 MG/KG OF LOW (3%) FAT DIET BEGINNING 1 WK POST CARCINOGEN DOSE AND CONTINUING FOR DURATION OF STUDY (STUDY DURATION:, Route [Inhibitor]: ORAL, Species: RAT, Strain/Sex: SPRAGUE-DAWLEY/FEMALE, Target Tissue: Type of Lesion: MAMMARY GLAND: TUMOR, Dose [Carcinogen]: 40 MG/KG ONCE
  tumour outcome (control, treated, inhibition, significance): 78%, 83%, -6%, not calculated

## NC(Cc1c[nH]c2ccccc12)C(=O)O (stereo not drawn)
Carcinogen: N-BUTYL-N-(4-HYDROXYBUTYL)NITROSAMINE, 3817-11-6, Dose [Inhibitor]: 5% DIET DAILY FOR 34 WK STARTING AT COMPLETION OF CARCINOGEN TREATMENT (STUDY DURATION: 38 WK), Route [Inhibitor]: ORAL, Species: RAT, Strain/Sex: F344/MALE, Target Tissue: Type of Lesion: URINARY BLADDER: PAPILLOMA, Dose [Carcinogen]: 0.01% IN DRINKING WATER FOR 4 WK
  tumour outcome (control, treated, inhibition, significance): 33%, 27%, 18%, not significant
